Test results taken from US20250161283A1, “USE OF INDAZOLE COMPOUND FOR TREATING PSORIASIS” (WUHAN CREATERNA SCIENCE AND TECHNOLOGY CO., LTD., priority 2022, published 2025).

Tested on: BALB/c mice
Experiment: IMQ (imiquimod) cream-induced psoriasis mouse model
Assay type: in vivo
Conditions: male BALB/c mice, 15 mg/kg intragastric, twice daily
Experimental: BALB/c mice, male, 8 weeks old, SPF grade, provided by Shanghai Lingchang Biotechnology Co., Ltd.
In the drawings: • Group 1 Vaseline-Topical Vehicle P.O indicates a normal control group (vehicle group). • Group 2 IMQ+Vehicle P.O indicates a model control group (vehicle group). • Group 3 IMQ+Dex-Topical indicates a positive control group (dexamethasone). • Group 4 IMQ+A 15 mg/kg P.O indicates a compound group (A, 15 mg/kg, intragastric administration). • Group 5 IMQ+B 15 mg/kg P.O indicates a compound group (B, 15 mg/kg, intragastric administration).
First, 50 mice were randomly divided into 5 groups based on body weight: compound group 1—normal control group (vehicle group); compound group 2—model control group (vehicle group); compound group 3—positive control group (dexamethasone); compound group 4 (compound A, 15 mg/kg, intragastrically administered); compound group 5 (compound B, 15 mg/kg, intragastrically administered). On day 0 of the experiment, the dorsal hair of mice in each group was shaved, removing approximately 2 cm*3 cm area of hair. From day 1 to day 7 of the experiment, except for the normal control group, each mouse received an application of 62.5 mg of 5% IMQ cream on the shaved dorsal area and 20.0 mg of 5% IMQ cream on both sides of the right ear. The normal control group received an application of Vaseline. From day 1 to day 8 of the experiment, two hours before IMQ cream stimulation, the above groups were treated with corresponding drugs. The mice were weighed and shaved prior to administration, which was recorded as day 0. The mice were administered drugs from day 1 to day 8, twice daily.
• 1.5.1. Body weight and rate of change: The body weight was recorded, and the rate of change in body weight was calculated. The results are shown in FIG. 1 (presented as Mean±SEM, where *P<0.05, **P<0.01, ***P<0.001, V.S. model control group, Two-way ANOVA, Bonferroni posttests, n=10). • 1.5.2. Right ear thickness measurement: The thickness of the right ear of animals in each group was measured and recorded using a micrometer. The results are shown in FIG. 2 (Note: data presented as Mean±SEM, where *P<0.05, **P<0.01, ***P<0.001, V.S. model control group, Two-way ANOVA, Bonferroni posttests, n=10; data presented as Mean±SEM, where #P<0.5, ##P<0.01, ###P<0.001, V.S. Group 4, Two-way ANOVA, Bonferroni posttests, n=10) • 1.5.3. Dorsal skin scoring: On days 1, 3, 5, and 7, a representative photograph was taken for each group, and clinical scoring of the dorsal skin was performed. The clinical scoring criteria are shown in Table 1, and the results are shown in FIG. 3 (data presented as Mean±SEM, where *P<0.05, **P<0.01, ***P<0.001, V.S. model control group, Two-way ANOVA, Bonferroni posttests, n=10; data presented as Mean±SEM, where #P<0.5, ##P<0.01, ###P<0.001, V.S. Group 4, Two-way ANOVA, Bonferroni posttests, n=10).
• 1.5.4. Spleen weight: On day 8, mice in each group were euthanized by CO2 inhalation, and the spleens were rapidly excised. Right ear and dorsal skin samples were also collected. One-third of the dorsal skin, spleen, and right ear tissues were fixed in 10% neutral formalin fixative for preparation of paraffin sections and HE staining. Another one-third of the dorsal skin was snap-frozen in liquid nitrogen for ELISA analysis. The remaining one-third of the dorsal skin was snap-frozen in liquid nitrogen and stored in a −80° C. freezer for future use. The results are shown in FIG. 4 (Note: data presented as Mean±SEM, where *P<0.05, **P<0.01, ***P<0.001, V.S. model control group, One-way ANOVA, Bonferroni posttests, n=10; data presented as Mean±SEM, where #P<0.5, ##P<0.01, ###P<0.001, V.S. Group 4, One-way ANOVA, Bonferroni posttests, n=10). • 1.5.5. Dorsal skin pathology scoring: Dorsal skin tissue samples were collected from mice and fixed in 10% neutral formalin fixative for 48 hours. The tissues were then degreased in 75% ethanol for 72 hours, with daily medium changes. […]

SMILES: COc1cc2nn([C@H]3CC[C@](C)(O)CC3)cc2cc1NC(=O)c1cccc(C)[n+]1[O-] [Compound B, 2-((2-(trans-4-hydroxy-cis-4-methylcyclohexyl)-6-methoxy-2H-indazol-5-yl)carbamoyl)-6-methylpyridine 1-oxide]
- disease symptoms in the keratin, epidermis, and dermis of the dorsal skin (HE staining of dorsal skin, compared to model control group): alleviation
- dorsal skin pathological scores (HE staining of dorsal skin, compared to model control group, FIG. 5): significant reduction
- psoriasis symptoms (compared to model control group): significant reduction
- weight loss (body weight and rate of change) (day 1 to day 8, compared to model control group, FIG. 1): significantly inhibited
- increase in right ear thickness (day 1 to day 8, compared to model control group, FIG. 2): significantly inhibited
- PASI clinical scores (dorsal skin: erythema, crusting, skin thickness, score 0-4) (scored on days 1, 3, 5, 7, compared to model control group, FIG. 3): significant reduction
- increase in spleen weight (spleen enlargement) (spleen excised on day 8, compared to model control group, FIG. 4): significantly inhibited
